In US8545872B2, “Device for the transdermal administration of a rotigotine base” (UCB Pharma GmbH, priority 2002, dated 2013):

Assays:
[1] = Solubility of rotigotine in polymers and solvents; format: physicochemical; details: e.g. hexane, ethyl acetate and toluol
[2] = cited from earlier work

CCCN(CCc1cccs1)[C@H]1CCc2c(O)cccc2C1 [Rotigotine, (−)-5,6,7,8-tetrahydro-6-[propyl[2-(2-thienyl)ethyl]amino]-1-naphtol]
Solubility of the crystals in solvents suitable for dissolving matrix polymers [1]: nearly insoluble
Solubility in hydrophobic polymers such as silicon [2]: only feebly soluble
